Measurements: ChEMBL document CHEMBL1201862, “PubChem BioAssay data set” (2004)
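Each compound was tested at five concentrations against cells in 96-well plates for 48 hours. At the GI50, growth is halved.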 Active and inactive are the calls of the source. No stated cut-off is given here; in the data, active = GI50 up to about 1.1 µM and inactive = higher.

Key:
Experiment in all cases: DTP human tumour cell line panel, 48 h
[1] = test system: MOLT-4
[2] = test system: MCF7
[3] = test system: OVCAR-5
[4] = test system: OVCAR-3
[5] = test system: NCI-H23
[6] = test system: UO-31
[7] = test system: HOP-92
[8] = test system: NCI-H522
[9] = test system: Malme-3M
[10] = test system: T47D
[11] = test system: LOX IMVI
[12] = test system: DU-145
[13] = test system: U-251
[14] = test system: EKVX
[15] = test system: CAKI-1
[16] = test system: PC-3
[17] = test system: SK-MEL-28
[18] = test system: HOP-62
[19] = test system: 786-0
[20] = test system: SNB-19

Row | Structure (SMILES) | GI50 [1] | GI50 [2] | GI50 [3] | GI50 [4] | GI50 [5] | GI50 [6] | GI50 [7] | GI50 [8] | GI50 [9] | GI50 [10] | GI50 [11] | GI50 [12] | GI50 [13] | GI50 [14] | GI50 [15] | GI50 [16] | GI50 [17] | GI50 [18] | GI50 [19] | GI50 [20]
1 | CCOC(=O)c1cc([N+](=O)[O-])c(Sc2ncnc3nc[nH]c23)c([N+](=O)[O-])c1 | 1.87 µM (inactive) | 1.24 µM (inactive) | 1.66 µM (inactive) | 1.39 µM (inactive) | 7.13 µM (inactive) | 2.62 µM (inactive) | 1.03 µM (active) | 0.643 µM (active) | 3.15 µM (inactive) | 2.96 µM (inactive) | 0.378 µM (active) | 10.2 µM (inactive) | 6.82 µM (inactive) | 4.92 µM (inactive) | 2.37 µM (inactive) | 9.82 µM (inactive) | 14.3 µM (inactive) | 11.1 µM (inactive) | 2.79 µM (inactive) | 17.1 µM (inactive)
2 | Cn1c(=S)c2nc(SCCN3C(=O)c4ccccc4C3=O)[nH]c2n(C)c1=O | 88.3 µM (inactive) | 32.7 µM (inactive) | > 100 µM (inactive) | > 100 µM (inactive) | > 100 µM (inactive) | > 100 µM (inactive) | > 100 µM (inactive) | 5.27 µM (inactive) | > 100 µM (inactive) | > 100 µM (inactive) | > 100 µM (inactive) | > 100 µM (inactive) | > 100 µM (inactive) | > 100 µM (inactive) | > 100 µM (inactive) | > 100 µM (inactive) | > 100 µM (inactive) | > 100 µM (inactive) | > 100 µM (inactive) | > 100 µM (inactive)
3 | COc1cc(CC(C)N)ccc1O (configuration not stated) | > 100 µM (inactive) | > 100 µM (inactive) | > 100 µM (inactive) | > 100 µM (inactive) | > 100 µM (inactive) | > 100 µM (inactive) | > 85.9 µM (inactive) | > 100 µM (inactive) | > 100 µM (inactive) | > 100 µM (inactive) | > 100 µM (inactive) | > 100 µM (inactive) | > 100 µM (inactive) | > 100 µM (inactive) | > 100 µM (inactive) | > 100 µM (inactive) | > 100 µM (inactive) | > 100 µM (inactive) | > 100 µM (inactive) | > 100 µM (inactive)
4 | CCOP(=O)(C/C=C/Cn1nc(Br)c(=O)[nH]c1=O)OCC | > 100 µM (inactive) | > 100 µM (inactive) | > 100 µM (inactive) | > 100 µM (inactive) | > 100 µM (inactive) | > 100 µM (inactive) | > 100 µM (inactive) | > 100 µM (inactive) | > 100 µM (inactive) | > 100 µM (inactive) | > 100 µM (inactive) | > 100 µM (inactive) | > 100 µM (inactive) | > 100 µM (inactive) | > 100 µM (inactive) | > 100 µM (inactive) | > 100 µM (inactive) | > 100 µM (inactive) | > 100 µM (inactive) | > 100 µM (inactive)
5 | Cn1c2c(c3c(=O)[nH]ncc31)CCCc1ccccc1-2 | 0.0891 µM (active) | 25 µM (inactive) | 45.2 µM (inactive) | 26.8 µM (inactive) | 37.7 µM (inactive) | 22.6 µM (inactive) | 12.9 µM (inactive) | 18.2 µM (inactive) | 22.5 µM (inactive) | 38.9 µM (inactive) | 21.6 µM (inactive) | 37.9 µM (inactive) | 27.9 µM (inactive) | 11.8 µM (inactive) | 21.8 µM (inactive) | 26.1 µM (inactive) |  | 18.9 µM (inactive) | 27.8 µM (inactive) | 42.7 µM (inactive)
6 | CCCCSC1=N/C(=C\c2ccc(N(C)C)cc2)C(=O)N1 | 57.5 µM (inactive) | 30.5 µM (inactive) | 24.4 µM (inactive) | 27 µM (inactive) | 67.9 µM (inactive) |  | 27.3 µM (inactive) | 21.7 µM (inactive) | 38.4 µM (inactive) | 18.7 µM (inactive) | 28.6 µM (inactive) | 60.1 µM (inactive) | 18.4 µM (inactive) | 19.1 µM (inactive) | 35.6 µM (inactive) | 0.256 µM (active) | 61.9 µM (inactive) | 46.2 µM (inactive) | 17.9 µM (inactive) | 31.7 µM (inactive)
7 | C=CC(C)(C)/C=C/c1ccc(O)cc1 | 38.5 µM (inactive) | 35.7 µM (inactive) | 46.6 µM (inactive) | 28.8 µM (inactive) | 31.8 µM (inactive) |  | 47 µM (inactive) | 34.4 µM (inactive) | 36.8 µM (inactive) | 20 µM (inactive) | 21.9 µM (inactive) | 40.4 µM (inactive) | 30 µM (inactive) | 45.3 µM (inactive) | 44.7 µM (inactive) | 28 µM (inactive) | 35.9 µM (inactive) | 58.2 µM (inactive) | 27.7 µM (inactive) | 44.3 µM (inactive)
